Measurements from US20210122730A1, “GLUCOCORTICOID RECEPTOR MODULATORS” (ORIC Pharmaceuticals, Inc., priority 2017, published 2021).

Biological target: T1, PR (Homo sapiens, UniProt P06401)
T1 construct: expressed in transfected cells; host or cells: CHO-K1
T1 sequence (P06401 1-933): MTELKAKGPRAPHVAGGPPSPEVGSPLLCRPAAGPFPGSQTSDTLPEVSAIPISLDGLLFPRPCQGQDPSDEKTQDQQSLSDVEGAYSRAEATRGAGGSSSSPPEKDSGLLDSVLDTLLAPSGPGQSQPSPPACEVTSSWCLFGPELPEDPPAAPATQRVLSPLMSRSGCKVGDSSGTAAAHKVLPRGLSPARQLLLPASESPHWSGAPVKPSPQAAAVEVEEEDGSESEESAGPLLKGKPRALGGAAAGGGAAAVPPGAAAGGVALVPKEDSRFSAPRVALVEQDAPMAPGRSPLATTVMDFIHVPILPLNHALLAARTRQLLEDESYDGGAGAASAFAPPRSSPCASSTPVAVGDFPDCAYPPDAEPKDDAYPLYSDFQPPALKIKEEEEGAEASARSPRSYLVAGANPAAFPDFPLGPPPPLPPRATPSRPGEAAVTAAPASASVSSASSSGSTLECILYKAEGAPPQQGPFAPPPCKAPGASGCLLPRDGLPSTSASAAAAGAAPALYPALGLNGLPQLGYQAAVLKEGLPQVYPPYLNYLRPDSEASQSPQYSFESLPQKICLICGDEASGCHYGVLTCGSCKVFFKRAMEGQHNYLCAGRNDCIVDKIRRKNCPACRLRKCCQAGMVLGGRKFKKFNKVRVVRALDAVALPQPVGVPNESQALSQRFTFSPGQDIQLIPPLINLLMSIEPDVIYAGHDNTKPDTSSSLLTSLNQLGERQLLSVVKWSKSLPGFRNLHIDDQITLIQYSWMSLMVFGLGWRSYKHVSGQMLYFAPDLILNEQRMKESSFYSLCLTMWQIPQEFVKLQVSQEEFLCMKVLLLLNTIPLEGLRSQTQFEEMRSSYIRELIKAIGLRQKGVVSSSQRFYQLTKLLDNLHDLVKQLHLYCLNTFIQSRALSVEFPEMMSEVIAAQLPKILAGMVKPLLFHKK
Assay: In Vitro PR Luciferase Reporter Assay (antagonist mode, CHO-K1-PR-MMTV-Luc reporter cells)
Type: cell-based
Settings: antagonist assay with 20 nM Progesterone, 18-24 hours, read-out: PR antagonism IC50
Text: Example C: In Vitro PR Luciferase Reporter Assay
Cell Line: CHO-KI-PR-MMTV-Luc reporter cells
Culture Media: DMEM (with phenol red)+1000FBS
Assay Media: DMEM (without phenol red)+1000CSS
Culture CHO-Kl-PR-MMTV-Luc reporter cells in 15 cm plates in Culture Media at conditions less than 90% confluence.
Prepared 200×DMSO 1:8 serial dilutions of control and test compounds in 96-well non-sterile V bottom plate in DMSO, 8 serial dilutions for each compound.
Prepared 5× Assay Media diluted compound serial dilutions in 96-well non-sterile V bottom plate: Add 97.5 μL/well of Assay Media into 96-well then add 2.5 μl of 200× concentration of compounds and mix well.
Added compounds: 5 μl of assay media diluted compounds were added to appropriate wells and followed a quick spin (1000 rpm, 10 sec) to bring media and cells to the bottom of plate. The plates were covered with SealMate film to avoid evaporation and placed in 37° C. incubator for approximately 18-24 hours.
Read plates: Equilibrated appropriate amount of Promega One-Glo luciferase reagent to room temperature. Removed the plates from incubator and added 25 μL of One-Glo luciferase reagent/well by multiple channel pipette and read the plates with Tecan F500 luminometer within 3 minutes.
The ability of exemplary compounds disclosed herein to inhibit PR activity was quantified and the respective IC50 value was determined. Table 4 provides the cellular IC50 values of exemplary compounds disclosed herein.

Row | Structure (SMILES) | IC50
1 | CC(C)N([C@H]1CCC2=Cc3c(cnn3-c3ccc(F)cc3)C[C@]2(C(=O)c2cc(C(F)(F)F)ccn2)C1)S(=O)(=O)c1ccn(C)n1 [Example 186, N-((4aS,6S)-1-(4-fluorophenyl)-4a-(4-(trifluoromethyl)picolinoyl)-4,4a,5,6,7,8-hexahydro-1H-benzo[f]indazol-6-yl)-N-isopropyl-1-methyl-1H-pyrazole-3-sulfonamide] | > 5 µM
2 | CC(C)N(C(=O)c1cnn(C)c1)[C@H]1CCC2=Cc3c(cnn3-c3ccc(F)cc3)C[C@]2(C(=O)c2ncc(C(F)(F)F)s2)C1 [Example 211, N-((4aS,6S)-1-(4-fluorophenyl)-4a-(5-(trifluoromethyl)thiazole-2-carbonyl)-4,4a,5,6,7,8-hexahydro-1H-benzo[f]indazol-6-yl)-N-isopropyl-1-methyl-1H-pyrazole-4-carboxamide] | > 5 µM
3 | Cn1ccc(S(=O)(=O)N(C2CC(F)(F)C2)[C@H]2CCC3=Cc4c(cnn4-c4ccc(F)cc4)C[C@]3(C(=O)c3cc(C(F)(F)F)ccn3)C2)n1 [Example 227, N-(3,3-difluorocyclobutyl)-N-((4aS,6S)-1-(4-fluorophenyl)-4a-(4-(trifluoromethyl)picolinoyl)-4,4a,5,6,7,8-hexahydro-1H-benzo[f]indazol-6-yl)-1-methyl-1H-pyrazole-3-sulfonamide] | > 5 µM
4 | O=C(c1cc(Cl)ccn1)[C@]12Cc3cnn(-c4ccc(F)cc4)c3C=C1CC[C@H](N(C1CC1)S(=O)(=O)c1ccc(F)cc1)C2 [Example 232, N-((4aS,6S)-4a-(4-chloropicolinoyl)-1-(4-fluorophenyl)-4,4a,5,6,7,8-hexahydro-1H-benzo[f]indazol-6-yl)-N-cyclopropyl-4-fluorobenzenesulfonamide] | > 5 µM
5 | Cn1cc(S(=O)(=O)N(CC(C)(C)O)[C@H]2CCC3=Cc4c(cnn4-c4ccc(F)cc4)C[C@]3(C(=O)c3cc(F)ccn3)C2)cn1 [Example 248, N-((4aS,6S)-1-(4-fluorophenyl)-4a-(4-fluoropicolinoyl)-4,4a,5,6,7,8-hexahydro-1H-benzo[f]indazol-6-yl)-N-(2-hydroxy-2-methylpropyl)-1-methyl-1H-pyrazole-4-sulfonamide] | > 5 µM
6 | Cn1ccc(S(=O)(=O)N(C2CC(F)(F)C2)[C@H]2CCC3=Cc4c(cnn4-c4ccc(F)cc4)C[C@]3(C(=O)c3ncc(C(F)(F)F)s3)C2)n1 [Example 270, N-(3,3-difluorocyclobutyl)-N-((4aS,6S)-1-(4-fluorophenyl)-4a-(5-(trifluoromethyl)thiazole-2-carbonyl)-4,4a,5,6,7,8-hexahydro-1H-benzo[f]indazol-6-yl)-1-methyl-1H-pyrazole-3-sulfonamide] | 3.6 µM

Other lines, results leading:

Row | IC50 | Structure (SMILES)
7 | > 5 µM | Cn1ccc(S(=O)(=O)N([C@H]2CCC3=Cc4c(cnn4-c4ccc(F)cc4)C[C@]3(C(=O)c3ncc(C(F)(F)F)s3)C2)[C@H]2C[C@@](C)(O)C2)n1 [Example 277, N-((4aS,6S)-1-(4-fluorophenyl)-4a-(5-(trifluoromethyl)thiazole-2-carbonyl)-4,4a,5,6,7,8-hexahydro-1H-benzo[f]indazol-6-yl)-N-((1s,3R)-3-hydroxy-3-methylcyclobutyl)-1-methyl-1H-pyrazole-3-sulfonamide]
8 | > 5 µM | Cn1cnc(S(=O)(=O)N(C2CC2)[C@H]2CCC3=Cc4c(cnn4-c4ccc(F)cc4)C[C@]3(C(=O)c3ncc(C(F)(F)F)s3)C2)n1 [Example 305, N-cyclopropyl-N-((4aS,6S)-1-(4-fluorophenyl)-4a-(5-(trifluoromethyl)thiazole-2-carbonyl)-4,4a,5,6,7,8-hexahydro-1H-benzo[f]indazol-6-yl)-1-methyl-1H-1,2,4-triazole-3-sulfonamide]
9 | > 5 µM | Cn1cnc(S(=O)(=O)N(C2CC2)[C@H]2CCC3=Cc4c(cnn4-c4ccc(F)cc4)C[C@]3(C(=O)c3cc(C(F)(F)F)ccn3)C2)n1 [Example 306, N-cyclopropyl-N-((4aS,6S)-1-(4-fluorophenyl)-4a-(4-(trifluoromethyl)picolinoyl)-4,4a,5,6,7,8-hexahydro-1H-benzo[f]indazol-6-yl)-1-methyl-1H-1,2,4-triazole-3-sulfonamide]
